In patent publication US20210121456A1, “USE OF METHYLNALTREXONE TO ATTENUATE TUMOR PROGRESSION” (Salix Pharmaceuticals, Inc., priority 2014, published 2021):

What was measured:
[1] = tested on: subjects with advanced medical illness and opioid-induced constipation; assay: Study 1: double-blind, randomized, placebo-controlled study of subcutaneous methylnaltrexone; format: in vivo, human
Method: A double-blind, randomized, placebo-controlled study of subcutaneous methylnaltrexone (MNTX) was conducted in subjects with advanced medical illness and a current history of opioid-induced constipation. To satisfy eligibility criteria for enrollment, subjects were required to be on stable doses of laxatives and opioid analgesics. In the context of the study, a stable dose of opioid analgesics was defined as no reduction in the dose of opioid analgesic of ≥50% for at least three days before the first dose of MNTX. A stable dose of laxatives was defined as having a standing laxative order (and not PRN, or as-needed) for at least three days before the first dose of MNTX. A diagnosis of constipation was provided if the subject had fewer than 3 bowel movements during the previous week by history and no clinically notable laxation in the 24 hours before the first dose of MNTX, or no clinical notable laxation in the 48 hours before the first dose of MNTX.
Eligible subjects were randomized to one of two treatment groups: MNTX 0.15 mg/kg (e.g., 8 mg for patients <62 kg body weight and 12 mg for patients ≥62 kg body weight) or placebo. Each treatment was administered every other day (QOD) subcutaneously for two weeks. Injections were administered subcutaneously in either the shoulder area, buttocks, abdomen, thighs or extremities. Rescue-laxatives, enemas or manual disimpactions were not administered within 4 hours before or after each dose of MNTX. Endpoints included: (1) the proportion of subjects with rescue-free laxation within 4 hours of the first dose of study drug, and (2) the proportion of subjects with ≥2 rescue-free laxations within 4 hours post dosing over 4 doses of study drug (the first week of the two-week treatment period). One hundred and thirty-four (134) subjects were enrolled and evaluated, including 78 patients with advanced cancers and 56 patients with other advanced illness, including COPD, cardiovascular disease and severe neurologic disease. Seventy-one (71) of the 134 subjects were randomized to the placebo group, and sixty-two (62) of the 134 subjects were randomized to MNTX treatment group. The co-primary efficacy endpoints of this study were: 1) the proportion of patients with laxation within 4 hours after the first dose of study drug, and 2) the proportion of patients with laxation within 4 hours after 2 of the first 4 doses (the first week of double-blind treatment). The primary endpoint was laxation within 4 hours. Secondary endpoints included the use of rescue medication and frequency of symptoms within 24 hours. […]

[2] = Plasma levels after oral administration; format: in vivo
Method: Methylnaltrexone is rapidly absorbed after oral administration from the stomach and bowel. Initial plasma levels of the drug are seen within 5-10 minutes of the administration of non-enteric coated compound.

colectomy patients = conditions: more than 500 colectomy patients, two randomized clinical trials; cited from earlier work
[3] = MNTX 0.15 mg/kg SC QOD, double-blind
[4] = regardless of the time after dose

C[N@+]1(CC2CC2)CC[C@]23c4c5ccc(O)c4O[C@H]2C(=O)CC[C@@]3(O)[C@H]1C5.[Br-] [MNTX, (R)—N-(cyclopropylmethyl) noroxymorphone methobromide]
subjects with improvement in constipation distress ([1]; Day 1): 53% | subjects for whom the bowel status was improved (second global rating, 'Likewise') ([1]; Day 7): 69.4% | subjects who rated their bowel status improved (global rating scale) ([1]; Day 7): 73.5% | subjects with improvement in constipation distress ([1]; Day 7): 64% | subjects for whom the bowel status was improved (second global rating, 'Likewise') ([1]; Day 14): 67.9% | subjects who rated their bowel status improved (global rating scale) ([1]; Day 14): 67.9% | subjects with improvement in constipation distress ([1]; Day 14): 60% | subjects with rescue-free laxation within 4 hours after at least 2 of the first 4 doses ([1]; MNTX 0.15 mg/kg SC QOD): 51.6% | subjects with rescue-free laxation within 4 hours after at least 2 of the first 4 doses (number) ([1]; MNTX 0.15 mg/kg SC QOD): Thirty-two | subjects with rescue-free laxation within 4 hours after at least 4 of the maximum 7 doses ([1]; MNTX 0.15 mg/kg SC QOD): 38.7% | subjects with rescue-free laxation within 4 hours after at least 4 of the maximum 7 doses (number) ([1]; MNTX 0.15 mg/kg SC QOD): twenty-four | subjects with rescue-free laxation within 4 hours after the first dose [1, 3]: 48.4% | subjects with rescue-free laxation within 4 hours after the first dose (number) [1, 3]: 30 subjects | median time to rescue-free laxation after the first dose ([1]; based on the subjects who had laxation): 1.0 h | subjects using enemas ([1]; during double-blind treatment (baseline 12.7%)): 23.8% | subjects using osmotic agents ([1]; during the study (baseline 30.2%)): 33.3% | subjects with at least one rescue-free laxation ([1]; first week of treatment): 95.2% | rescue-free laxations within 4 hours after any dose rated as moderate, considerable, or great difficulty ([1]; in vivo): 33.0% | subjects with rescue-free laxations within 4 hours after any individual dose ([1]; range over doses): 37.3-48.4% | subjects with rescue-free laxations within 24 hours after any individual dose ([1]; range over doses): 55.4-66.0% | subjects with at least three rescue-free laxations per week [1, 4]: 67.7% | subjects with at least three rescue-free laxations per week (number) [1, 4]: 42 subjects | watery bowel movements ([1]; rescue-free laxations within 4 hours after any dose): 15.9% | subjects with at least one rescue-free laxation ([1]; second week of treatment): 91.2% | plasma levels with an enteric coating which prevents gastric absorption ([2]; enteric coated, oral): lower plasma levels | time to initial plasma levels after oral administration ([2]; non-enteric coated compound): 5 to 10 min | safety and perioperative analgesia (colectomy patients): safely given
